Data taken from patent US20240358692A1, “TREATMENT OF SCLERODERMA” (Aisa Pharma, Inc., priority 2023, published 2024).

What was measured:
participants with SSc-RP [1] = test: Average daily Raynaud's Condition Score (RCS); format: in vivo, human; parameters: key to Average Daily RCS, Mean / Average Daily RCS, Median / Average Daily RCS Change from Baseline, Mean / Average Daily RCS Change from Baseline, Median: RCS rated on a 0-10 cm VAS scale; details: ITT Population - Part A; for Average Daily RCS, Mean / Average Daily RCS, Median: dosing period
Text: The RCS is based on how much difficulty participants had with Raynaud's today, how many attacks the participant had, and how long they lasted. In addition participants were and will be asked to consider how much pain, numbness, or other symptoms the Raynaud's caused in fingers (including painful sores), and how much the Raynaud's along affected the use of hand today (VAS 0-10 cm scale).
The absolute change in average daily RCS from baseline to the end of each dosing period was and will be a secondary outcome variable. The sponsor-developed participant-informed diary has been and will be used to record data. The average daily RCS is defined as the total RCS divided by the number of days with available diary data of each dosing period. Total RCS during screening period divided by the number of days with available data will be used as baseline for the analysis of all periods. If there are multiple daily RCS scores, the latest daily RCS will be used. The variable will be calculated similar to frequency data as before.

participants with SSc-RP [2] = test: Summary of data: dose response / overall response (Table S); format: in vivo, human; details: 20 mg dose group
[3] = cited from earlier work
[4] = Excluding Outliers, dose cilnidipine 10 mg, tadalafil 5 mg, alone or combined as labelled
[5] = Excluding Outliers, dose cilnidipine 20 mg, tadalafil 5 mg, alone or combined as labelled
[6] = Excluding Outliers, pooled arms Cilnidipine 10 mg and Cilnidipine 10 mg + Tadalafil 5 mg
[7] = Excluding Outliers, pooled arms Cilnidipine 20 mg and Cilnidipine 20 mg + Tadalafil 5 mg
[8] = Excluding Outliers, pooled cilnidipine 10 mg and 20 mg arms (combination: + tadalafil 5 mg)
[9] = dose cilnidipine 10 mg, tadalafil 5 mg, alone or combined as labelled
[10] = dose cilnidipine 20 mg, tadalafil 5 mg, alone or combined as labelled
[11] = pooled arms Cilnidipine 10 mg and Cilnidipine 10 mg + Tadalafil 5 mg
[12] = pooled arms Cilnidipine 20 mg and Cilnidipine 20 mg + Tadalafil 5 mg
[13] = pooled cilnidipine 10 mg and 20 mg arms (combination: + tadalafil 5 mg)

COCCOC(=O)C1=C(C)NC(C)=C(C(=O)OC/C=C/c2ccccc2)C1c1cccc([N+](=O)[O-])c1 (stereo not drawn) [Cilnidipine]
Average Daily RCS Change from Baseline, Mean (participants with SSc-RP [1]; [4]): −0.98 | Average Daily RCS Change from Baseline, Median (participants with SSc-RP [1]; [4]): −0.98 | Average Daily RCS Percent Change from Baseline, Mean (participants with SSc-RP [1]; [4]): −35.74% | Average Daily RCS Percent Change from Baseline, Median (participants with SSc-RP [1]; [4]): −35.74% | Average Daily RCS Change from Baseline, Mean (participants with SSc-RP [1]; [5]): −0.45 | Average Daily RCS Change from Baseline, Median (participants with SSc-RP [1]; [5]): −0.45 | Average Daily RCS Percent Change from Baseline, Mean (participants with SSc-RP [1]; [5]): −17.16% | Average Daily RCS Percent Change from Baseline, Median (participants with SSc-RP [1]; [5]): −17.16% | Average Daily RCS, Mean (participants with SSc-RP [1]; [4]): 1.76 | Average Daily RCS, Median (participants with SSc-RP [1]; [4]): 1.76 | Average Daily RCS, Mean (participants with SSc-RP [1]; [5]): 2.90 | Average Daily RCS, Median (participants with SSc-RP [1]; [5]): 2.90 | Average Daily RCS, Mean (participants with SSc-RP [1]; [6]): 2.43 | Average Daily RCS, Median (participants with SSc-RP [1]; [6]): 1.76 | Average Daily RCS, Mean (participants with SSc-RP [1]; [7]): 3.60 | Average Daily RCS, Median (participants with SSc-RP [1]; [7]): 3.82 | Average Daily RCS, Mean (participants with SSc-RP [1]; [8]): 2.52 | Average Daily RCS, Median (participants with SSc-RP [1]; [8]): 1.76 | Average Daily RCS Change from Baseline, Mean (participants with SSc-RP [1]; [6]): −1.64 | Average Daily RCS Change from Baseline, Median (participants with SSc-RP [1]; [6]): −1.51 | Average Daily RCS Percent Change from Baseline, Mean (participants with SSc-RP [1]; [6]): −41.77% | Average Daily RCS Percent Change from Baseline, Median (participants with SSc-RP [1]; [6]): −36.47% | Average Daily RCS Change from Baseline, Mean (participants with SSc-RP [1]; [7]): −1.08 | Average Daily RCS Change from Baseline, Median (participants with SSc-RP [1]; [7]): −0.59 | Average Daily RCS Percent Change from Baseline, Mean (participants with SSc-RP [1]; [7]): −18.93% | Average Daily RCS Percent Change from Baseline, Median (participants with SSc-RP [1]; [7]): −20.71% | Average Daily RCS Change from Baseline, Mean (participants with SSc-RP [1]; [8]): −0.63 | Average Daily RCS Change from Baseline, Median (participants with SSc-RP [1]; [8]): −0.98 | Average Daily RCS Percent Change from Baseline, Mean (participants with SSc-RP [1]; [8]): −23.35% | Average Daily RCS Percent Change from Baseline, Median (participants with SSc-RP [1]; [8]): −35.74% | Average Daily RCS Change from Baseline, Mean (participants with SSc-RP [1]; [9]): −0.98 | Average Daily RCS Change from Baseline, Median (participants with SSc-RP [1]; [9]): −0.98 | Average Daily RCS Percent Change from Baseline, Mean (participants with SSc-RP [1]; [9]): −35.74% | Average Daily RCS Percent Change from Baseline, Median (participants with SSc-RP [1]; [9]): −35.74% | Average Daily RCS Change from Baseline, Mean (participants with SSc-RP [1]; [10]): −0.45 | Average Daily RCS Change from Baseline, Median (participants with SSc-RP [1]; [10]): −0.45 | Average Daily RCS Percent Change from Baseline, Mean (participants with SSc-RP [1]; [10]): −17.16% | Average Daily RCS Percent Change from Baseline, Median (participants with SSc-RP [1]; [10]): −17.16% | Average Daily RCS, Mean (participants with SSc-RP [1]; [9]): 1.76 | Average Daily RCS, Median (participants with SSc-RP [1]; [9]): 1.76 | Average Daily RCS, Mean (participants with SSc-RP [1]; [10]): 2.90 | Average Daily RCS, Median (participants with SSc-RP [1]; [10]): 2.90 | Average Daily RCS, Mean (participants with SSc-RP [1]; [11]): 2.43 | Average Daily RCS, Median (participants with SSc-RP [1]; [11]): 1.76 | Average Daily RCS, Mean (participants with SSc-RP [1]; [12]): 3.60 | Average Daily RCS, Median (participants with SSc-RP [1]; [12]): 3.82 | Average Daily RCS, Mean (participants with SSc-RP [1]; [13]): 2.52 | Average Daily RCS, Median (participants with SSc-RP [1]; [13]): 1.76 | Average Daily RCS Change from Baseline, Mean (participants with SSc-RP [1]; [11]): −1.64 | Average Daily RCS Change from Baseline, Median (participants with SSc-RP [1]; [11]): −1.51 | Average Daily RCS Percent Change from Baseline, Mean (participants with SSc-RP [1]; [11]): −41.77% | Average Daily RCS Percent Change from Baseline, Median (participants with SSc-RP [1]; [11]): −36.47% | Average Daily RCS Change from Baseline, Mean (participants with SSc-RP [1]; [12]): −1.08 | Average Daily RCS Change from Baseline, Median (participants with SSc-RP [1]; [12]): −0.59 | Average Daily RCS Percent Change from Baseline, Mean (participants with SSc-RP [1]; [12]): −18.93% | Average Daily RCS Percent Change from Baseline, Median (participants with SSc-RP [1]; [12]): −20.71% | Average Daily RCS Change from Baseline, Mean (participants with SSc-RP [1]; [13]): −0.63 | Average Daily RCS Change from Baseline, Median (participants with SSc-RP [1]; [13]): −0.98 | Average Daily RCS Percent Change from Baseline, Mean (participants with SSc-RP [1]; [13]): −23.35% | Average Daily RCS Percent Change from Baseline, Median (participants with SSc-RP [1]; [13]): −35.74% | Efficacy seen: overall response (participants with SSc-RP [2]): shows best overall | CL/F ([3]; 10 mg Cilnidipine, Healthy Volunteers, single oral dose, mean): 304.7 L/h | time to achieve maximal plasma concentrations (Tmax) ([3]; oral dosing): ≤ 2 h
